Key:
MDA-MB-468 tumors [1] = test: Radioactivity metabolite characterization (radio-HPLC of tumor extracts); format: in vivo, mouse; conditions: 24 h post iv
Procedure: MDA-MB-468 tumor xenografts were established on the forelimbs of female athymic nude mice (Hsd:Athymic Nude-Foxn1nu; Envigo; 6 weeks old; RRID:MGI:5652489) by subcutaneous (s.c.) injection of 5 × 10^6 cells in a 200 µl cell suspension of a 1:1 v/v mixture of PBS with reconstituted basement membrane (BD Matrigel^TM, Collaborative Biomedical Products Inc., Bedford, MA). […] After 24 h, tumors were harvested and weighed prior to homogenization in acetonitrile/H2O (3:7) using Bullet Blender Tissue Homogenizer (Next Advance Inc.). Tumor-associated radioactivity was extracted in methylene chloride, and the organic layer was separated and dried under vacuum. Samples were reconstituted in 10% CH3CN in 0.1% HCOOH in water were analyzed using Shimadzu (Columbia, Maryland USA) HPLC system equipped with binary pumps LC-20AB, UV detector and sodium iodide radioactivity detector connected to flow-ram (Lab Logic, Tampa, FL) and 250 × 4.6 mm Phenomenex Luna (Torrance, CA) C-18 HPLC column (10 µM, 100 A).

MDA-MB-468 tumors [2] = test: In vivo biodistribution of [131I]-PU-HZ151 (gamma counting); design: species or system mouse; key to Biodistribution, Lung / Biodistribution, Heart / Biodistribution, Muscle / Biodistribution, Blood / Biodistribution, Bone / Biodistribution, Brain / Biodistribution, tumor: percent injected dose per gram tissue (%ID/g); Biodistribution, Tumor - S / Biodistribution, Tumor - L: unit: %ID/g; conditions: mean
Procedure: Activity in the syringe before and after administration was assayed in a dose calibrator (CRC-15R; Capintec) to determine by difference the actual activity administered to each animal. Animals were euthanized by CO2 asphyxiation at different time points post-administration of the tracer and organs including tumors were harvested and weighed. […] Count data were background and decay-corrected to the time of injection, and the percent injected dose per gram (%ID g^−1) for each tissue sample was calculated by using a measured calibration factor to convert count rate to activity and the activity was normalized to the activity injected and the mass of sample assayed to yield the activity concentration in %ID g^−1.

SMILES: CC(C)(C)CNCCn1c(Sc2cc3c(cc2[131I])OCO3)nc2c(N)ncnc21 [[131I]-PU-HZ151]
- species in tumor extract (MDA-MB-468 tumors [1]): only [^131I]-PU-HZ151 contributed to tumor-associated radioactivity
- Biodistribution, Blood (MDA-MB-468 tumors [2]; 1 h): 0.732
- Biodistribution, Bone (MDA-MB-468 tumors [2]; 1 h): 0.55
- Biodistribution, Brain (MDA-MB-468 tumors [2]; 1 h): 0.397
- Biodistribution, Heart (MDA-MB-468 tumors [2]; 1 h): 0.402
- Biodistribution, Lung (MDA-MB-468 tumors [2]; 1 h): 0.666
- Biodistribution, Muscle (MDA-MB-468 tumors [2]; 1 h): 0.29
- Biodistribution, tumor (MDA-MB-468 tumors [2]; 1 h): 1.745
- Biodistribution, Blood (MDA-MB-468 tumors [2]; 4 h): 0.1086
- Biodistribution, Bone (MDA-MB-468 tumors [2]; 4 h): 0.07
- Biodistribution, Brain (MDA-MB-468 tumors [2]; 4 h): 0.015
- Biodistribution, Heart (MDA-MB-468 tumors [2]; 4 h): 0.063
- Biodistribution, Lung (MDA-MB-468 tumors [2]; 4 h): 0.296
- Biodistribution, Muscle (MDA-MB-468 tumors [2]; 4 h): 0.034
- Biodistribution, Tumor - L (MDA-MB-468 tumors [2]; 4 h): 0.5106
- Biodistribution, Tumor - S (MDA-MB-468 tumors [2]; 4 h): 0.5895
- Biodistribution, Blood (MDA-MB-468 tumors [2]; 6 h): 0.08349
- Biodistribution, Bone (MDA-MB-468 tumors [2]; 6 h): 0.05
- Biodistribution, Brain (MDA-MB-468 tumors [2]; 6 h): 0.01
- Biodistribution, Heart (MDA-MB-468 tumors [2]; 6 h): 0.045
- Biodistribution, Lung (MDA-MB-468 tumors [2]; 6 h): 0.237
- Biodistribution, Muscle (MDA-MB-468 tumors [2]; 6 h): 0.044
- Biodistribution, Tumor - L (MDA-MB-468 tumors [2]; 6 h): 0.4547
- Biodistribution, Tumor - S (MDA-MB-468 tumors [2]; 6 h): 0.5075
- Biodistribution, tumor (MDA-MB-468 tumors [2]; 6 h): 0.5792
- Biodistribution, Blood (MDA-MB-468 tumors [2]; 8 h): 0.05883
- Biodistribution, Bone (MDA-MB-468 tumors [2]; 8 h): 0.033
- Biodistribution, Brain (MDA-MB-468 tumors [2]; 8 h): 0.005
- Biodistribution, Heart (MDA-MB-468 tumors [2]; 8 h): 0.027
- Biodistribution, Lung (MDA-MB-468 tumors [2]; 8 h): 0.129
- Biodistribution, Muscle (MDA-MB-468 tumors [2]; 8 h): 0.023
- Biodistribution, Tumor - L (MDA-MB-468 tumors [2]; 8 h): 0.3061
- Biodistribution, Tumor - S (MDA-MB-468 tumors [2]; 8 h): 0.2819
- Biodistribution, Blood (MDA-MB-468 tumors [2]; 12 h): 0.02368
- Biodistribution, Bone (MDA-MB-468 tumors [2]; 12 h): 0.012
- Biodistribution, Brain (MDA-MB-468 tumors [2]; 12 h): 0.002
- Biodistribution, Heart (MDA-MB-468 tumors [2]; 12 h): 0.009
- Biodistribution, Lung (MDA-MB-468 tumors [2]; 12 h): 0.04
- Biodistribution, Muscle (MDA-MB-468 tumors [2]; 12 h): 0.006
- Biodistribution, Tumor - L (MDA-MB-468 tumors [2]; 12 h): 0.2552
- Biodistribution, Tumor - S (MDA-MB-468 tumors [2]; 12 h): 0.2535
- Biodistribution, Blood (MDA-MB-468 tumors [2]; first column group, 24 h): 0.002331
- Biodistribution, Bone (MDA-MB-468 tumors [2]; first column group, 24 h): 0.016
- Biodistribution, Brain (MDA-MB-468 tumors [2]; first column group, 24 h): 0.001
- Biodistribution, Heart (MDA-MB-468 tumors [2]; first column group, 24 h): 0.003
- Biodistribution, Lung (MDA-MB-468 tumors [2]; first column group, 24 h): 0.012
- Biodistribution, Muscle (MDA-MB-468 tumors [2]; first column group, 24 h): 0.002
- Biodistribution, Tumor - L (MDA-MB-468 tumors [2]; first column group, 24 h): 0.2045
- Biodistribution, Tumor - S (MDA-MB-468 tumors [2]; first column group, 24 h): 0.1544
- Biodistribution, Bone (MDA-MB-468 tumors [2]; first column group, 48 h): 0.004
- Biodistribution, Brain (MDA-MB-468 tumors [2]; first column group, 48 h): 0
- Biodistribution, Heart (MDA-MB-468 tumors [2]; first column group, 48 h): 0.002
- Biodistribution, Lung (MDA-MB-468 tumors [2]; first column group, 48 h): 0.004
- Biodistribution, Muscle (MDA-MB-468 tumors [2]; first column group, 48 h): 0.001
- Biodistribution, Tumor - L (MDA-MB-468 tumors [2]; first column group, 48 h): 0.08346
- Biodistribution, Tumor - S (MDA-MB-468 tumors [2]; first column group, 48 h): 0.08811
- Biodistribution, Blood (MDA-MB-468 tumors [2]; second column group, 24 h): 0.0041
- Biodistribution, Bone (MDA-MB-468 tumors [2]; second column group, 24 h): 0.012
- Biodistribution, Brain (MDA-MB-468 tumors [2]; second column group, 24 h): 0.00319
- Biodistribution, Heart (MDA-MB-468 tumors [2]; second column group, 24 h): 0.0138
- Biodistribution, Lung (MDA-MB-468 tumors [2]; second column group, 24 h): 0.061
- Biodistribution, Muscle (MDA-MB-468 tumors [2]; second column group, 24 h): 0.002
- Biodistribution, tumor (MDA-MB-468 tumors [2]; second column group, 24 h): 0.1057
- Biodistribution, Blood (MDA-MB-468 tumors [2]; second column group, 48 h): 0.00228
- Biodistribution, Bone (MDA-MB-468 tumors [2]; second column group, 48 h): 0.0182
- Biodistribution, Brain (MDA-MB-468 tumors [2]; second column group, 48 h): 0.00219
- Biodistribution, Heart (MDA-MB-468 tumors [2]; second column group, 48 h): 0.00513
- Biodistribution, Lung (MDA-MB-468 tumors [2]; second column group, 48 h): 0.0472
- Biodistribution, Muscle (MDA-MB-468 tumors [2]; second column group, 48 h): 0.018
- Biodistribution, tumor (MDA-MB-468 tumors [2]; second column group, 48 h): 0.03983

— article PMC8333062, “Chemical tools for epichaperome-mediated interactome dysfunctions of the central nervous system” (Nature Communications, 2021)
